The assay has as its target human A2A receptor (A2AR) (Homo sapiens (Human), UniProt P29274). The assay is described as follows: Luciferase reporter assay (HEK293-A2AR-luc2p/CRE/Hygro cells). The format is cell-based. The settings on record: 3 nM CGS21680, 5 h incubation. Summed up:
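Antagonism was scored as inhibition of CRE-luciferase signal driven by 3 nM CGS21680 (=100%) during a 5 h treatment with compound at 0.1–10000 nM. The line was HEK293 stably carrying human A2AR and luc2P/CRE, preincubated 18 h in 1% FBS containing 1 U/mL ADA. IC50 came from the dose-response curve.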
Chain of human A2A receptor (A2AR) (P29274 whole entry): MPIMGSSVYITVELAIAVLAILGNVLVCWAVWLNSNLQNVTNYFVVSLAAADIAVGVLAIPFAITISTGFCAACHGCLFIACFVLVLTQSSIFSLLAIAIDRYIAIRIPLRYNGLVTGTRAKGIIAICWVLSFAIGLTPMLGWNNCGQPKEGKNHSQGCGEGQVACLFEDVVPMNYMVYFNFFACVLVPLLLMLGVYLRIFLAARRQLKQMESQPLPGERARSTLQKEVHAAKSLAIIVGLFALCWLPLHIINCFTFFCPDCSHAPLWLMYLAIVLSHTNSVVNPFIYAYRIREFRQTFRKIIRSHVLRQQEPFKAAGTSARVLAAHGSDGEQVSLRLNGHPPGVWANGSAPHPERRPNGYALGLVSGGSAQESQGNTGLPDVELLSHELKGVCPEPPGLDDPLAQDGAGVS
In turn, `CC(C(=O)NCc1cccc(C2(O)CCC2)n1)(c1ccccc1)n1ncc2c1nc(N)n1nc(-c3ccco3)nc21` (stereo not shown) [Example 130, 2-(5-amino-2-(furan-2-yl)-7H-pyrazolo[4,3-e][1,2,4]triazolo[1,5-c]pyrimidin-7-yl)-N-((6-(1-hydroxycyclobutyl)pyridin-2-yl)methyl)-2-phenylpropanamide] showed an IC50 of 6.9 nM. `C[C@@](C(=O)N[C@@H]1CCC[C@@H]1O)(c1ccccc1)n1ncc2c1nc(N)n1nc(-c3ccco3)nc21` [Example 48A, (S)-2-(5-amino-2-(furan-2-yl)-7H-pyrazolo[4,3-e][1,2,4]triazolo[1,5-c]pyrimidin-7-yl)-N-((1R,2S)-2-hydroxycyclopentyl)-2-phenylpropanamide]: inhibition was half-maximal at 12.6 nM (IC50). The value for `COc1ccc(CNC(=O)[C@@](C)(c2ccccc2)n2ncc3c2nc(N)n2nc(-c4ccco4)nc32)nc1` [Example 113B, (R)-2-(5-amino-2-(furan-2-yl)-7H-pyrazolo[4,3-e][1,2,4]triazolo[1,5-c]pyrimidin-7-yl)-N-((5-methoxypyridin-2-yl)methyl)-2-phenylpropanamide] was 0.9 nM; that for `COc1cccnc1CNC(=O)[C@@](C)(c1ccccc1)n1ncc2c1nc(N)n1nc(-c3ccco3)nc21` [Example 115B, (R)-2-(5-amino-2-(furan-2-yl)-7H-pyrazolo[4,3-e][1,2,4]triazolo[1,5-c]pyrimidin-7-yl)-N-((3-methoxypyridin-2-yl)methyl)-2-phenylpropanamide] was 3.3 nM. The same measure for `CC(C(=O)N[C@H]1CC[C@H](O)CC1)(c1ccccc1)n1ncc2c1nc(N)n1nc(-c3ccco3)nc21` (relative stereo) [Example 52, 2-(5-amino-2-(furan-2-yl)-7H-pyrazolo[4,3-e][1,2,4]triazolo[1,5-c]pyrimidin-7-yl)-(trans)-N-(4-hydroxycyclohexyl)-2-phenylpropanamide]: 6.7 nM. The value for `CC(C(=O)NCc1ccncc1)(c1ccccc1)n1ncc2c1nc(N)n1nc(-c3ccco3)nc21` (stereo not shown) [Example 83, 2-(5-amino-2-(furan-2-yl)-7H-pyrazolo[4,3-e][1,2,4]triazolo[1,5-c]pyrimidin-7-yl)-2-phenyl-N-(pyridin-4-ylmethyl)propenamide] was 11.2 nM; that for `C[C@](C(=O)N[C@H]1CC[S@@+]([O-])CC1)(c1ccccc1)n1ncc2c1nc(N)n1nc(-c3ccco3)nc21` (single isomer, unassigned) [Example 146B-1] was 39.3 nM; that for `CC(C(=O)NC[C@H]1CCCO1)(c1ccccc1)n1ncc2c1nc(N)n1nc(-c3ccco3)nc21` (stereo partly drawn) [Example 50, 2-(5-amino-2-(furan-2-yl)-7H-pyrazolo[4,3-e][1,2,4]triazolo[1,5-c]pyrimidin-7-yl)-2-phenyl-N—(((R)-tetrahydrofuran-2-yl)methyl)propanamide] was 5.3 nM. As for `CC(C(=O)NC1CCCC(O)C1)(c1ccccc1)n1ncc2c1nc(N)n1nc(-c3ccco3)nc21` (stereo not shown) [Example 99, 2-(5-amino-2-(furan-2-yl)-7H-pyrazolo[4,3-e][1,2,4]triazolo[1,5-c]pyrimidin-7-yl)-N-(3-hydroxycyclohexyl)-2-phenylpropanamide], the IC50 was 12 nM. Compound `Nc1nc2c(cnn2C(C(=O)N[C@@H]2CCOc3ccccc32)c2ccccc2)c2nc(-c3ccco3)nn12` (stereo partly drawn) [Example 15, 2-(5-amino-2-(furan-2-yl)-7H-pyrazolo[4,3-e][1,2,4]triazolo[1,5-c]pyrimidin-7-yl)-N—((R)-chroman-4-yl)-2-phenylacetamide] registered an IC50 of 7.9 nM. The same measure for `COCCOCCNC(=O)C(C)(c1ccccc1)n1ncc2c1nc(N)n1nc(-c3ccco3)nc21` (stereo not shown) [Example 75, 2-(5-amino-2-(furan-2-yl)-7H-pyrazolo[4,3-e][1,2,4]triazolo[1,5-c]pyrimidin-7-yl)-N-(2-(2-methoxyethoxy)ethyl)-2-phenylpropanamide]: 16.9 nM. The value for `CC(C(=O)NC[C@H]1CCOC1)(c1ccccc1)n1ncc2c1nc(N)n1nc(-c3ccco3)nc21` (stereo partly drawn) [Example 54, 2-(5-amino-2-(furan-2-yl)-7H-pyrazolo[4,3-e][1,2,4]triazolo[1,5-c]pyrimidin-7-yl)-2-phenyl-N—(((R)-tetrahydrofuran-3-yl)methyl)propanamide] was 8.1 nM; that for `Nc1nc2c(cnn2C(C(=O)NCc2ccc(OC(F)(F)F)cc2)c2ccccc2)c2nc(-c3ccco3)nn12` (stereo not shown) [Example 24, 2-(5-amino-2-(furan-2-yl)-7H-pyrazolo[4,3-e][1,2,4]triazolo[1,5-c]pyrimidin-7-yl)-2-phenyl-N-(4-(trifluoromethoxy)benzyl)acetamide] was 5.6 nM.

Compound `C[C@@](C(=O)N[C@H]1CC[C@@H](O)CC1)(c1ccccc1)n1ncc2c1nc(N)n1nc(-c3ccco3)nc21` [Example 76A, (S)-2-(5-amino-2-(furan-2-yl)-7H-pyrazolo[4,3-e][1,2,4]triazolo[1,5-c]pyrimidin-7-yl)-(cis)-N-(4-hydroxycyclohexyl)-2-phenylpropanamide] yielded an IC50 of 40.4 nM. The same measure for `CC(C(=O)NCCN1CCOCC1)(c1ccccc1)n1ncc2c1nc(N)n1nc(-c3ccco3)nc21` (stereo not shown) [Example 41, 2-(5-amino-2-(furan-2-yl)-7H-pyrazolo[4,3-e][1,2,4]triazolo[1,5-c]pyrimidin-7-yl)-N-(2-morpholinoethyl)-2-phenylpropanamide]: 9.3 nM; for `Cc1cccc(CNC(=O)C(C)(c2ccccc2)n2ncc3c2nc(N)n2nc(-c4ccco4)nc32)n1` (stereo not shown) [Example 108, 2-(5-amino-2-(furan-2-yl)-7H-pyrazolo[4,3-e][1,2,4]triazolo[1,5-c]pyrimidin-7-yl)-N-((6-methylpyridin-2-yl)methyl)-2-phenylpropanamide]: 3 nM; for `CC(C(=O)N[C@H]1CCCNC1)(c1ccccc1)n1ncc2c1nc(N)n1nc(-c3ccco3)nc21` (stereo partly drawn) [Example 68, 2-(5-amino-2-(furan-2-yl)-7H-pyrazolo[4,3-e][1,2,4]triazolo[1,5-c]pyrimidin-7-yl)-2-phenyl-N—((S)-piperidin-3-yl)propanamide]: 72.1 nM. The same measure for `COc1ccccc1CNC(=O)C(CC(C)C)n1ncc2c1nc(N)n1nc(-c3ccco3)nc21` (stereo not shown) [Example 27, 2-(5-amino-2-(furan-2-yl)-7H-pyrazolo[4,3-e][1,2,4]triazolo[1,5-c]pyrimidin-7-yl)-N-(2-methoxybenzyl)-4-methylpentanamide]: 16.1 nM; for `COc1ccnc(CNC(=O)C(C)(c2ccccc2)n2ncc3c2nc(N)n2nc(-c4ccco4)nc32)c1` (stereo not shown) [Example 114, 2-(5-amino-2-(furan-2-yl)-7H-pyrazolo[4,3-e][1,2,4]triazolo[1,5-c]pyrimidin-7-yl)-N-((4-methoxypyridin-2-yl)methyl)-2-phenylpropanamide]: 3.3 nM. In the case of `CC(C(=O)N[C@@H]1CCCC[C@@H]1O)(c1ccccc1)n1ncc2c1nc(N)n1nc(-c3ccco3)nc21` (stereo partly drawn) [Example 58, 2-(5-amino-2-(furan-2-yl)-7H-pyrazolo[4,3-e][1,2,4]triazolo[1,5-c]pyrimidin-7-yl)-N-((1R,2S)-2-hydroxycyclohexyl)-2-phenylpropanamide], the half-maximal inhibitory concentration (IC50) worked out at 1.8 nM.

In the case of `CNCCNC(=O)C(C)(c1ccccc1)n1ncc2c1nc(N)n1nc(-c3ccco3)nc21` (stereo not shown) [Example 81, 2-(5-amino-2-(furan-2-yl)-7H-pyrazolo[4,3-e][1,2,4]triazolo[1,5-c]pyrimidin-7-yl)-N-(2-(methylamino)ethyl)-2-phenylpropanamide], the midpoint of inhibition, the IC50, lay at 120 nM. The same measure for `C[C@](C(=O)NCc1ccccn1)(c1ccccc1)n1ncc2c1nc(N)n1nc(-c3ccco3)nc21` [Example 66B, (R)-2-(5-amino-2-(furan-2-yl)-7H-pyrazolo[4,3-e][1,2,4]triazolo[1,5-c]pyrimidin-7-yl)-2-phenyl-N-(pyridin-2-ylmethyl)propanamide]: 2.4 nM; for `C[C@](C(=O)NCc1ccc(C(F)(F)F)cn1)(c1ccccc1)n1ncc2c1nc(N)n1nc(-c3ccco3)nc21` [Example 142B, (R)-2-(5-amino-2-(furan-2-yl)-7H-pyrazolo[4,3-e][1,2,4]triazolo[1,5-c]pyrimidin-7-yl)-2-phenyl-N-((5-(trifluoromethyl)pyridin-2-yl)methyl)propanamide]: 1 nM. The value for `CC(C(=O)NC1CCNCC1)(c1ccccc1)n1ncc2c1nc(N)n1nc(-c3ccco3)nc21` (stereo not shown) [Example 101, 2-(5-amino-2-(furan-2-yl)-7H-pyrazolo[4,3-e][1,2,4]triazolo[1,5-c]pyrimidin-7-yl)-2-phenyl-N-(piperidin-4-yl)propanamide] was 35.1 nM; that for `Cc1ccccc1C(C)(C(=O)NCC1(O)COC1)n1ncc2c1nc(N)n1nc(-c3ccco3)nc21` (stereo not shown) [Example 63, 2-(5-amino-2-(furan-2-yl)-7H-pyrazolo[4,3-e][1,2,4]triazolo[1,5-c]pyrimidin-7-yl)-N-((3-hydroxyoxetan-3-yl)methyl)-2-(o-tolyl)propanamide] was 4.3 nM; that for `CC1(O)CCC(NC(=O)[C@](C)(c2ccccc2)n2ncc3c2nc(N)n2nc(-c4ccco4)nc32)CC1` (stereo in doubt) [Example 69A, (S)-2-(5-amino-2-(furan-2-yl)-7H-pyrazolo[4,3-e][1,2,4]triazolo[1,5-c]pyrimidin-7-yl)-(cis)-N-(4-hydroxy-4-methylcyclohexyl)-2-phenylpropanamide] was 41.6 nM.

Compound `COc1ccccc1C(C)(C(=O)N[C@H]1CC[C@](C)(O)CC1)n1ncc2c1nc(N)n1nc(-c3ccco3)nc21` (stereo partly drawn) [Example 140, 2-(5-amino-2-(furan-2-yl)-7H-pyrazolo[4,3-e][1,2,4]triazolo[1,5-c]pyrimidin-7-yl)-N-((cis)-4-hydroxy-4-methylcyclohexyl)-2-(2-methoxyphenyl)propanamide] yielded a concentration for half-maximal inhibition (IC50) of 1.2 nM. The value for `Nc1nc2c(cnn2C(C(=O)N[C@H]2CCOc3ccccc32)c2ccccc2)c2nc(-c3ccco3)nn12` (stereo partly drawn) [Example 16, 2-(5-amino-2-(furan-2-yl)-7H-pyrazolo[4,3-e][1,2,4]triazolo[1,5-c]pyrimidin-7-yl)-N—((S)-chroman-4-yl)-2-phenylacetamide] was 44.6 nM.

Source of the values: US11472811B2, “Pyrazolotriazolopyrimidine derivatives as A2A receptor antagonist” (BEIGENE, LTD., priority 2018, dated 2022).
